Source: patent publication US7968294B2, “SLIT2 underexpression in metastatic prostate cancer” (The Regents of the University of Michigan, priority 2008, dated 2011)
Entries after “also recorded” stand apart in the source; their conditions may differ.

System: SLIT2 expression in prostate cancer cell lines
Experiment: QRT-PCR analysis of SLIT2 transcript after compound treatment
Assay type: cell-based, human
Details: normalized to GAPDH housekeeping gene, FIG. 4c-e, DU145 prostate cancer cell lines, 5 uM SAHA time-course in panel d

| SMILES | SLIT2 expression (transcript level) |
| --- | --- |
| O=C(CCCCCCC(=O)Nc1ccccc1)NO [SAHA] | restore the expression level of SLIT2; also recorded: up-regulated |
| Nc1nccc2c1ncn2C1C=C(CO)C(O)C1O (centres unmarked) [DZNep] | Marked up-regulation |
